Measured values reported in patent US8968715B2, “Drug delivery systems for photodynamic therapy” (The University of British Columbia, priority 2000, dated 2015).
Entries after “also recorded” stand apart in the source; their conditions may differ.

Key:
[1] = Drug incorporation into 10% w/v Pluronic P123; format: physicochemical; conditions: for Drug concentration formulated in 10% P123: 10% P123, non-optimized systems
Method: Using formulation methods described in Example 5, the aim was to incorporate 2 mg/ml of B-B3 into 10% w/v P123. It was shown by this method that the B-B3 can typically be incorporated at ˜1.8 mg/ml drug (based on absorbance readings and a molar extinction coefficient of 30425) 24 h post-hydration. This translates to approximately 10% drug loss. Unincorporated drug undergoes aggregation in aqueous solutions, and is characterized by the appearance of a 730 nm absorbance peak. Although the formulations can be made completely aggregate free by centrifugation or sterile filtration through 0.2 μm filters, this adds another step in the manufacturing process, which can be avoided by increasing the copolymer:drug ratio.

MRL/lpr mouse = test: Transcutaneous PDT treatment of arthritis, ankle width; format: in vivo; conditions: 0.5 mg/kg i.v.
Method: Arthritis in the MRL/lpr mouse strain was enhanced by giving 2 intradermal injections (thoracic and inguinal sites) with 0.05 ml of complete Freunds adjuvant containing 10 mg/ml heat-inactivated M. tuberculosis. PDT was given on days 0, 10 and 20 following CFA treatment. PDT was carried out as follows; 3 groups of MRL/lpr mice were injected intravenously with B-B3 at 0.5 mg/kg (copolymer or liposomal formulations), after which they were protected from light. The third group was injected with copolymer alone at an equivalent copolymer concentration to that found in the formulation. An hour later, they were exposed to light at 80 J/cm^2 for […] (8 mW/cm^2).
Ankle width measurements were taken every 5 days prior to PDT treatment.

[2] = pH studies of formulation stability; format: physicochemical; conditions: poloxamer formulations
From the text: This necessitates hydration of the solid drug-polymer with a very mild buffer to counteract acidification which occurs upon use of sterile packed distilled water as commonly practiced in clinical settings. Behavior of poloxamers is unaffected by pH, and the use of buffers would be entirely dependent on ionizable groups present on the drug substance.

[3] = test system: M1 rhabdomyosarcoma tumor cells; test: Tumor recurrence after PDT in tumor mouse model; format: in vivo, DBA/2 mouse
Method: Photosensitizer formulations were prepared in 10% w/v Pluronics as described in Example 4. BPD-MA was formulated in F127. B-ring compounds B-EA6 and B-B3, were prepared in P123 due to insufficient drug loading in F127. Liposomal BPD-MA formulation was Verteporfin™ and B-ring compounds were formulated in the same lipid composition. Where DMSO/plasma preparations were made, the DMSO dissolved drug was added directly to mouse plasma and the drug association with different plasma components was observed.
In these experiments the tumor model used was the DBA/2 mouse (males) inoculated intradermally with M1 rhabdomyosarcoma tumor cells (M1, ATCC. When tumors reached a diameter of 4-6 mm, the mice (n=10, unless other wise stated) were treated with photodynamic therapy (PDT). PDT involved intravenous injection of the formulated drug in 0.2 mL volume of PBS. This was followed by exposure of the tumor region to laser light (Argon pumped dye laser (5W), 690 nm, 50 J/cm^2) 15 min later. Animals were then monitored for tumor recurrence over a 20 day period post treatment.

L1210 cells = test: Cellular uptake of photosensitizer formulations; format: cell-based; conditions: 3 μg/ml, FIG. 1
Method: The protocol for setting up the cell cultures and conditions for the cellular assay essentially followed Richter et al. (Proc. SPIE, 2078: 293-304, September 1993). L1210 cells in DMEM and 10% FBS (single experiment, 3 sets) were incubated with the formulations at a concentration of 3 μg/ml and examined for uptake in the cells over time. Cells were recovered by centrifugation, the pellet briefly rinsed, and the cells lysed by freeze thawing in the presence of 2% Triton X-100®. An equal volume of methanol was added and fluorescence was read at 694 nm (λex 440 nm).

[4] = Deposition of BPD-MA / F127 formulations on lactose crystals: hydration and filtration; format: physicochemical
Method: In this experiment the deposition of the photosensitizer BPD-MA with the block copolymer Pluronic® F127 onto the sugar lactose was examined. Formulations containing 5% (w/v) and a 10% (w/v) F127 were tested. 0.5 g lactose and 10 mg BPD-MA were added to two rotary evaporation flasks. A stock solution of […] F127 was prepared in CH2Cl2. 1.25 ml (for 5% w/v) and 2.5 ml (for 10% w/v) F127 stock solution was added to each flask. The final volume in each flask was made up to 5.0 ml with CH2Cl2 and the components mixed to ensure complete dissolution. The solvent was removed by rotary evacuation at 50° C., and the flask left under vacuum for a further 15 min at 23° C. Micro-thin film deposits were scraped from the walls and hydrated in 5 ml water at 50° C. The formulations were filtered twice using 0.2 μm syringe filters (Acrodisc, polysulphone).
The experimental conditions and components were the same as Example 15 with the exception of the following changes. A stock of 0.2 mg/ml F127 was prepared in ethanol and 0.65 ml (2.5% w/v) and 1.25 ml (5% w/v) of the stock solution was added to two flasks. The final volume was made up to 5.0 ml with ethanol and the contents dissolved with warming. Ethanol was removed by rotary evacuation at 50° C., left under vacuum for 15 min at room. Micro-thin film deposits were scraped from the walls and dissolved in 5 ml water at 50° C. as previously described. […]

[5] = BPD-MA drug loading and formulation stability in Pluronic copolymers (melt method, absorbance); format: physicochemical; conditions: 3 days storage at room temperature
Method: In this experiment the use of copolymers for drug loading capability and formulation stability over a 3 day period was examined using the photosensitizer drug BPD-MA. The criteria for choosing the copolymers were based on the solution and viscosity characteristics described in Example 1. The ‘melt’ method is used for the preparation and screening of the large number of samples and is described as follows. At temperatures above 50° C., poloxamers are in their molten state and serve as excellent solvents for tetrapyrrolic compounds, thus avoiding the need for pre-dissolution of drugs in organic solvents. 5 mg of BPD-MA was dissolved with the aid of vortex mixing and sonication at 55° C. into the polymer ‘melts’ to give a final concentration of 5% to 20% w/v of the respective Pluronic. To each melt sample, 2.5 ml of PBS was added to give a final BPD-MA concentration of 2 mg/ml. Samples were allowed to equilibrate to room temperature before drug loading was determined at time zero (T0). 1 ml of suspension was removed for centrifugation (Microfuge, 14,000 rpm, 30 min), and the rest filtered through 0.2 μm filters (Millipore). The filtrate was diluted 1:100 in PBS and the absorbance at 690±3 nm determined (uv-vis spectrophotometer Beckman DU-6401). This procedure was repeated 72 hours later following storage at room temperature and the absorbance measurement (T72).

## C=Cc1c(C)c2cc3nc(cc4[nH]c(cc5nc(cc1[nH]2)C1(C)C5=CC=C(C(=O)O)C1C(=O)OC)c(C)c4CCC(=O)OC)C(CCC(=O)OC)=C3C (stereo not shown) [B-B3]
[1]
  Drug concentration formulated in 10% P123: approximately 1.8 mg/ml
[1]; aim 2 mg/ml into 10% w/v P123
  Drug incorporated / retained 24 h post-hydration: ~1.8 mg/mL
MRL/lpr mouse; copolymer formulation, 80 J/cm^2, FIG. 2
  Control of joint inflammation (increase in ankle swelling): highly effective in controlling the inflammation
MRL/lpr mouse; liposomal formulation, after day 25
  Control of joint inflammation (increase in ankle swelling): exacerbation of the inflammatory condition
MRL/lpr mouse; liposomal formulation, earlier part of the study, FIG. 2, 0.5 mg/kg
  Control of joint inflammation (increase in ankle swelling): improved suppression of the inflammation compared to controls; also recorded: better suppression of the inflammation compared to the controls
[2]
  pH dependence of formulation stability: detrimental to formulation stability
[3]; plasma/DMSO preparation
  PDT efficacy in tumor model: completely ineffective for PDT purposes
L1210 cells; copolymer Pluronic P123 formulation
  Incubation time of 50% uptake level: close to ‘zero’ incubation time

## C=Cc1c(C)c2cc3nc(cc4[nH]c(cc5nc(cc1[nH]2)C1(C)C5=CC=C(C(=O)OC)C1C(=O)OC)c(C)c4CCC(=O)OCCO)C(CCC(=O)OCCO)=C3C (stereo not shown) [B-EA6]
[2]
  pH dependence of formulation stability: does not display any pH-dependency

## benzoporphyrin derivative monoacid ring A [BPD-MA]
[1]
  Drug concentration formulated in 10% P123: ≤ 4000 µg/mL
[4]; 2.5% and 5% w/v F127 on lactose, ethanol as solvent
  Filtration through 0.2 μm filter: no resistance
[4]; 5% w/v and 10% w/v F127 on lactose, CH2Cl2 as solvent
  Drug loss on filtration through 0.2 μm filters: no drug loss
[3]; Liposomal, 1.0 mg/kg, Day 7
  Percent (%) Mice Tumor Free: 100%
[3]; Liposomal, 1.0 mg/kg, Day 14
  Percent (%) Mice Tumor Free: 100%
[3]; Liposomal, 1.0 mg/kg, Day 20
  Percent (%) Mice Tumor Free: 30%
[3]; Pluronic F127, 1.0 mg/kg, Day 7
  Percent (%) Mice Tumor Free: 100%
[3]; Pluronic F127, 1.0 mg/kg, Day 14
  Percent (%) Mice Tumor Free: 60%
[3]; Pluronic F127, 1.0 mg/kg, Day 20
  Percent (%) Mice Tumor Free: 60%
[3]; end of the 20 day period
  Likelihood to remain tumor free, poloxamer formulation compared to liposomal BPD-MA: twice as likely to remain tumor free
[5]
  Stability of BPD-MA formulations in Pluronic: no loss of stability
L1210 cells; liposomal formulation
  Incubation time at which uptake saturation level is achieved: 30 min
  Incubation time of 50% uptake: approximately 5 min
